The record followed here is patent US20110230478A1 (Bayer ScienceCrop AG, priority 2008, published 2011).

The first data set in a line: logP by HPLC on reversed-phase columns (C 18), EEC Directive 79/831 Annex V.A8. Format: physicochemical. As to conditions: LC-MS, pH 2.7, 0.1% aqueous formic acid and acetonitrile.
As for `COCC(C)Nc1nc(Nc2ccc(OC)nc2)ncc1Cl` (centres unmarked) [II-2], the “logP [b]” value was 1.39[b].

Still in this data set, the particulars now being: method marker [a].
In the case of `CCN(CC)c1ccc(Nc2ncc(Cl)c(NC3CCCCC3)n2)cc1` [Example 265], the logP was 1.69[a].

Staying with this data set, now noted: method marker [a]; footnote not given.
As to `COCC(C)Nc1nc(Nc2ccc(OC(C)C)cc2)ncc1Cl` (centres unmarked) [Example 8], the logP was 1.69[a].

`COCC(C)Nc1nc(Nc2ccc(C(C)C)cc2)ncc1Cl` (centres unmarked) [Example 9]: the logP is 2.38[a]. The same measure, in the same setting: the same measure for `CC(C)(C)Nc1nc(Nc2ccc(S(=O)(=O)N3CCOCC3)cc2)ncc1Cl` [Example 64]: 2.84[a]. On the same count and under the same terms, the same measure for `CSC[C@H](C)Nc1nc(Nc2ccc(S(=O)(=O)N(C)C)cc2)ncc1Cl` [Example 30]: 2.59[a]. On to `CCC(C)Nc1nc(Nc2ccccc2)ncc1Cl.Cl` (centres unmarked) [Example 65], for which the logP is 2.04[a]. Same read-out and setting: the same measure for `CCC(C)N(C)c1nc(Nc2cccc(C(C)=O)c2)ncc1Cl.Cl` (centres unmarked) [Example 41]: 2.88[a]; for `CC(C)N(C)c1nc(Nc2cccc(S(=O)(=O)N(C)C)c2)ncc1Cl` [Example 43]: 2.96[a]; for `CCN(CC)c1ccc(Nc2ncc(Cl)c(NC(C)COC)n2)cc1` (centres unmarked) [Example 13]: 1.16[a]. With `CC(C)Oc1ccc(Nc2ncc(Cl)c(NCCO)n2)cc1.Cl` [Example 59], the logP was 1.48[a]. Take `COCCNc1nc(Nc2ccc(C(C)C)cc2)ncc1Cl` [Example 11]: the logP was 2.09[a]. For `CSCC(C)Nc1nc(Nc2ccccc2)ncc1Cl` (centres unmarked) [Example 37], the logP was 2.04[a]. Still for that read-out and setting: the same measure for `CC(C)(C)Nc1nc(Nc2ccccc2)ncc1Cl` [Example 34]: 2.17[a]. Still for that read-out and setting: the same measure for `CC(=O)c1cccc(Nc2ncc(Cl)c(NC(C)(C)C)n2)c1` [Example 49]: 2.15[a]; for `CCC(CO)Nc1nc(Nc2ccc(S(=O)(=O)N(C)C)cc2)ncc1Cl` (centres unmarked) [Example 22]: 1.83[a]; for `COCC(C)Nc1nc(Nc2ccccc2)ncc1C(F)(F)F` (centres unmarked) [Example 25]: 2.96[a];. Regarding `CCC(CO)Nc1nc(Nc2cccc(C(C)=O)c2)ncc1Cl` (centres unmarked) [Example 21], the logP was 1.53[a].

As for `CC(=O)c1cccc(Nc2ncc(Cl)c(N(C)C)n2)c1.Cl` [Example 42], the logP is 1.84[a]. The same measure, in the same setting: the same measure for `COCCNc1nc(Nc2cc(OC)cc(OC)c2)ncc1Cl` [Example 4]: 1.67[a]; for `C=CCNc1nc(Nc2ccccc2)ncc1Cl.Cl` [Example 66]: 1.68[a].

The same data set, now with this note: method marker [b] (compound 257: pH2.7).
As to `Clc1cnc(Nc2ccccc2)nc1NC1CCCCC1` [Example 259], the logP was 2.53[b]. With `C[Si](C)(C)CNc1nc(Nc2ccccc2)ncc1Cl` [Example 287], the logP was 2.14[b]. Take `CCCN(C)c1nc(Nc2ccccc2)ncc1Cl` [Example 272]: the logP is 2.55[b]. For the molecule `CC(C)Nc1nc(Nc2cccc(Cn3cccn3)c2)ncc1Cl` [Example 298], the logP was 1.7[b]. On the same count and under the same terms, the same measure for `CC(C)Nc1nc(Nc2cccc(CS(=O)(=O)N(C)C)c2)ncc1Cl` [Example 250]: 1.69[b]. Take `CC(C)(C)CNc1nc(Nc2ccccc2)ncc1Cl` [Example 273]: the logP is 2.48[b]. Still for that read-out and setting: the same measure for `CCCCCNc1nc(Nc2ccccc2)ncc1Cl` [Example 278]: 2.41[b]; for `OCCNc1nc(Nc2ccccc2)ncc1Cl` [Example 285]: 0.7[b]; for `CC(C)CCNc1nc(Nc2ccccc2)ncc1Cl` [Example 277]: 2.37[b]. For `CC(C)Nc1nc(Nc2cccc(CS(=O)(=O)NC(C)c3ccccc3)c2)ncc1Cl` (centres unmarked) [Example 248], the logP was 2.32[b]. On the same count and under the same terms, the same measure for `C=CCCNc1nc(Nc2ccccc2)ncc1Cl` [Example 294]: 1.87[b]. The same measure, in the same setting: the same measure for `CSCCNc1nc(Nc2ccccc2)ncc1Cl` [Example 293]: 1.75[b].

Staying with this data set, now noted: method marker [b]; footnote not given; compound 68 value matches logP (pH 2.3).
Take `COCC(C)Nc1nc(Nc2cccc(CC(=O)OC)c2)ncc1Cl` (centres unmarked) [Example 93]: the logP was 1.75[b]. `CN(C)c1nc(Nc2ccccc2)ncc1C#N` [Example 44]: the logP is 2.36[b]. Same read-out and setting: the same measure for `COCC(C)Nc1nc(Nc2ccc(C(F)(F)F)cc2)ncc1Cl` (centres unmarked) [Example 82]: 3.22[b].

For `CC(C)Nc1nc(Nc2cccc(CN3CCN(C)C3=O)c2)ncc1Cl` [Example 48], the logP is 1.54[b]. Same read-out and setting: the same measure for `COCC(C)Nc1nc(Nc2cccc(Cl)c2)ncc1Br` (centres unmarked) [Example 71]: 2.82[b]. Same read-out and setting: the same measure for `COCC(C)Nc1nc(Nc2cccc(CC(=O)OC)c2)ncc1Br` (centres unmarked) [Example 113]: 1.87[b]; for `COCC(C)Nc1nc(Nc2ccccc2)ncc1C(F)(F)F` (centres unmarked) [Example 25]: 2.74[b].

The same data set, now with this note: method marker [c].
`CCCN(C)c1nc(Nc2ccccc2)ncc1Cl` [Example 272]: the logP is 4.35[c];. Same read-out and setting: the same measure for `CC(C)Nc1nc(Nc2cccc(CS(=O)(=O)N(C)C)c2)ncc1Cl` [Example 250]: 2.85[c];; for `OCCNc1nc(Nc2ccccc2)ncc1Cl` [Example 285]: 1.83[c];.

On to `CC(C)Nc1nc(Nc2cccc(CS(=O)(=O)NC(C)c3ccccc3)c2)ncc1Cl` (centres unmarked) [Example 248], for which the logP was 3.57[c];.

Still in this data set, the particulars now being: method marker [c]; footnote not given.
With `CC(C)Nc1nc(Nc2cccc(CN3CCN(C)C3=O)c2)ncc1Cl` [Example 48], the logP was 2.56[c];. For `COCC(C)Nc1nc(Nc2ccccc2)ncc1C(F)(F)F` (centres unmarked) [Example 25], the logP is 3.52[c];.

The same data set, now with this note: pH 2.3, 0.1% aqueous phosphoric acid and acetonitrile; read-out: logP [a].
Turning to `CCCCN(C)c1nc(Cl)ncc1Cl` [Example V-28], the chromatographic logP was determined as 3.89.

Staying with this data set, now noted: pH 2.3, logP [a].
The molecule `CCN(C)c1nc(Cl)ncc1Cl` [Example V-19, 2,5-dichloro-N-ethyl-N-methylpyrimidine-4-amine] yielded a chromatographic logP of 2.68. The same measure, in the same setting: the same measure for `Clc1ncc(Cl)c(NC2CCCC2)n1` [Example V-12, 2,5-dichloro-N-(cyclopentyl)pyrimidine-4-amine]: 3.16; for `CSCC(C)(C)Nc1nc(Cl)ncc1Cl` [Example V-7, 2,5-dichloro-N-[2-methyl-1-(methylsulphanyl)propan-2-yl]pyrimidine-4-amine]: 3.47; for `CC(C)Nc1nc(Cl)ncc1Cl` [Example V-9, 2,5-dichloro-N-(propan-2-yl)pyrimidine-4-amine]: 2.46.

The same data set, now with this note: reversed-phase HPLC column (C 18), pH 2.3, pH 2.3, 0.1% aqueous phosphoric acid and acetonitrile; read-out: logP [a].
With `CCCC(C)Nc1nc(Cl)ncc1Cl` (centres unmarked) [Example V-27, 2,5-dichloro-N-(pent-2-yl)pyrimidine-4-amine], the chromatographic logP is 3.47. Consider `CSCC(C)Nc1nc(Cl)ncc1Cl` (centres unmarked) [Example V-6, 2,5-dichloro-N-[1-(methylsulphanyl)propan-2-yl]pyrimidine-4-amine], for which the chromatographic logP came to 2.73. With `CC(NS(=O)(=O)Cc1cccc(N)c1)c1ccccc1` (centres unmarked) [IV-7, 1-(3-aminophenyl)-N-(1-phenylethyl)methanesulphonamide], the chromatographic logP was found to be 1.53. Still for that read-out and setting: the same measure for `CC(C)CN(C)c1nc(Cl)ncc1Cl` [Example V-26, 2,5-dichloro-N-methyl-N-(2-methylpropyl)pyrimidine-4-amine]: 3.78; for `CC(C)N(C)S(=O)(=O)Cc1cccc(N)c1` [IV-6, 1-(3-aminophenyl)-N-methyl-N-(propan-2-yl)methanesulphonamide]: 1.08; for `CC(C)c1cccc(Nc2ncc(C(F)(F)F)c(Cl)n2)c1` [VIII-4, 4-Chloro-N-[3-(propan-2-yl)phenyl]-5-(trifluoromethyl)pyrimidine-2-amine]: 4.87.

The same data set, now with this note: values marked [a]; pH 2.3.
Consider `CSCC(C)(C)Nc1nc(Nc2ccccc2)ncc1Cl` [Example 174], for which the logP is 2.68[a];. Still for that read-out and setting: the same measure for `CSc1cccc(Nc2ncc(Cl)c(NCC#N)n2)c1` [Example 221]: 2.27[a]. For the molecule `COCC(C(C)C)N(C)c1nc(Nc2ccccc2)ncc1Br` (centres unmarked) [Example 231], the logP is 2.47[a].

Still in this data set, the particulars now being: values marked [b]; footnote not given.
On to `CC(C)Nc1nc(Nc2ccc3cc[nH]c3c2)ncc1Cl` [Example 215], for which the logP was 1.63[b]. On the same count and under the same terms, the same measure for `COc1ccc(Nc2ncc(Cl)c(NC(C)C)n2)cc1` [Example 183]: 1.63[b]. The same measure, in the same setting: the same measure for `COCC(C)Nc1nc(Nc2cccc(NC(=O)Oc3ccccc3)c2)ncc1Cl` (centres unmarked) [Example 165]: 2.23[b]; for `COCC(C)Nc1nc(Nc2cccc(C(=O)N(C)C)c2)ncc1Cl` (centres unmarked) [Example 155]: 1.47[b]. The same measure, in the same setting: the same measure for `COCC(C)Nc1nc(Nc2ccc(SC(F)F)cc2)ncc1Cl` (centres unmarked) [Example 172]: 2.8[b]; for `COCC(C)Nc1nc(Nc2ccc(NC(C)=O)c(OC)c2)ncc1Cl` (racemic) [Example 140]: 1.38[b]. Consider `COC(=O)Nc1cccc(Nc2ncc(Cl)c(NC(C)C)n2)c1` [Example 204], for which the logP is 1.59[b].

As to `COCC(C)Nc1nc(Nc2cccc(C=O)c2)ncc1Cl` (centres unmarked) [Example 244], the logP is 1.8[b]. On the same count and under the same terms, the same measure for `CC(=O)Nc1ccc(Nc2ncc(Cl)c(NC(C)C)n2)cc1` [Example 189]: 1.32[b].

With `COCC(C)Nc1nc(Nc2ccc(NC(C)=O)c(OC)c2)ncc1Br` (racemic) [Example 125], the logP is 1.46[b]. Still for that read-out and setting: the same measure for `CC(C)Nc1nc(Nc2cccc(C#N)c2)ncc1Cl` [Example 180]: 2.21[b]; for `COC(=O)Nc1ccc(Nc2ncc(Cl)c(NC(C)C)n2)cc1` [Example 201]: 1.53[b]; for `CSc1ccc(Nc2ncc(Cl)c(NC(C)C)n2)cc1Cl` [Example 187]: 2.91[b]. The same measure, in the same setting: the same measure for `COCC(Nc1nc(Nc2ccccc2)ncc1Cl)C(C)C` (centres unmarked) [Example 176]: 2.33[b].

Regarding `COCC(C)Nc1nc(Nc2cccc(NC(=O)C3(C)CC3)c2)ncc1Cl` (centres unmarked) [Example 162], the logP was 1.78[b]. Still for that read-out and setting: the same measure for `COCC(C)Nc1nc(Nc2cccc(NC(=O)OC)c2)ncc1Cl` (centres unmarked) [Example 153]: 1.59[b]; for `FC(F)(F)OCCNc1nc(Nc2ccccc2)ncc1Cl` [Example 177]: 2.26[b]; for `CCOC(=O)Nc1ccc(Nc2ncc(Cl)c(NC(C)C)n2)cc1` [Example 202]: 1.66[b].

On to `Cc1cccc(Nc2ncc(Cl)c(NC(C)C)n2)c1` [Example 229], for which the logP is 2[b].

`COCC(C)Nc1nc(Nc2cccc(C(=O)NC(C)(C)C)c2)ncc1Cl` (centres unmarked) [Example 157]: the logP is 1.99[b].

The same data set, now with this note: values marked [c]; footnote not given.
For the molecule `CSCC(C)(C)Nc1nc(Nc2ccccc2)ncc1Cl` [Example 174], the logP was 4.18[c].

In the case of `COCC(C)Nc1nc(Nc2cccc(C=O)c2)ncc1Cl` (centres unmarked) [Example 244], the logP was 2.75[c];. `Cc1cccc(Nc2ncc(Cl)c(NC(C)C)n2)c1` [Example 229]: the logP is 3.84[c];.
